The first experiment relates to imagoes of the tiger mosquito, Aedes albopictus. Kind of experiment: noxious-insect repellency test (treated forearm in a cage of tiger mosquitoes, percent repellency from biting marks). It is filed as in vivo. To be noted: content 0.05% (wt. %) in 40 wt. % ethanol aqueous solution; an hour after application. The protocol: In each example, the noxious-insect repellency test was conducted as follows:
Test method of noxious-insect repelling effect and durability thereof In order to assess the repelling effect against imagoes of the tiger mosquito, Aedes albopictus, the following test was conducted at a room temperature of 30° C. and a relative humidity of 70% in an air-conditioned room. 10 ml each of test samples was applied to left and right forearms. Each treated forearm was introduced into a wire gauze cage (20 cm L.×15 cm Dia.) containing 50 female and 50 male tiger mosquitoes 5-7 days old after eclosion, for 15 minutes to afford time for biting. The assessment was repeated 30 minutes, 1 hour, 2 hours, 4 hours and 6 hours after the test sample was applied. The number of marks made by biting within each biting time was counted and a percent repellency was calculated using the following formula:
Percent repellency=(X−Y)/X×100 (%)
X: the number of the marks made by biting when the test sample was not applied,
Y: the number of the marks made by biting when the test sample was applied.
`CC(C)C1CCC(C)C(CO)C1O` (stereo not shown) [HMMO, 2-hydroxymethyl-menthol] came in with a Percent repellency of 18%.

The experiment is the same for the next values; noted with them: content 0.1% (wt. %) in 40 wt. % ethanol aqueous solution; an hour after application.
`CC1CCC(C(C)(C)O)C(=O)C1C` (stereo not shown) [8-hydroxy-2-methyl-p-menthan-3-one]: the Percent repellency amounted to 30%.

`CC(C)C1CCC(C)C(CO)C1O` (stereo not shown) [HMMO, 2-hydroxymethyl-menthol] showed a Percent repellency of 48%.

The experiment is the same for the next values; noted with them: content 1% (wt. %) in 40 wt. % ethanol aqueous solution; an hour after application.
For `CC1CCC(C(C)(C)O)C(=O)C1C` (stereo not shown) [8-hydroxy-2-methyl-p-menthan-3-one], the Percent repellency amounted to 70%.

As to `CC(C)C1CCC(C)C(CO)C1O` (stereo not shown) [HMMO, 2-hydroxymethyl-menthol], the Percent repellency is on record as 78%.

The same experiment, now with this note: content 3% (wt. %) in 40 wt. % ethanol aqueous solution; an hour after application.
`CC1CCC(C(C)(C)O)C(=O)C1C` (stereo not shown) [8-hydroxy-2-methyl-p-menthan-3-one]: the Percent repellency amounted to 94%.

`CC(C)C1CCC(C)C(CO)C1O` (stereo not shown) [HMMO, 2-hydroxymethyl-menthol] yielded a Percent repellency of 92%.

The experiment is the same for the next values; noted with them: lotion or milky lotion containing the compound, tiger mosquito imagoes.
Regarding `CCCCCCCCCCCC1(CO)CCCC1O` (stereo not shown) [2-hydroxymethyl-2-undecyl-cyclopentanol], the “noxious-insect repelling effect and durability (result in words)” value is “excellent noxious-insect repelling effect and durability”.

On to `CCCC(O)C1C(=O)C2(C)CCC1C2(C)C` (stereo not shown) [3-(1-hydroxybutyl)-camphor], for which the “noxious-insect repelling effect and durability (result in words)” value is “excellent noxious-insect repelling effect and durability”.

`CCCCC(O)C1CC(C)CCC1=O` (stereo not shown) [2-(1-hydroxyamyl)-4-methyl-cyclohexanone]: the “noxious-insect repelling effect and durability (result in words)” value is “excellent noxious-insect repelling effect and durability”.

For `CC(C)C(O)C1C(=O)C2(C)CCC1C2(C)C` (stereo not shown) [3-(1-hydroxy-2-methylpropyl)-camphor], the “noxious-insect repelling effect and durability (result in words)” value is “excellent noxious-insect repelling effect and durability”.

`CC(O)C1CCCCCCC1O` (stereo not shown) [2-(1-hydroxyethyl)-cyclooctanol]: the “noxious-insect repelling effect and durability (result in words)” value is “excellent noxious-insect repelling effect and durability”.

As for `OCC1CCCCCCC1O` (stereo not shown) [2-hydroxymethyl-cyclooctanol], the “noxious-insect repelling effect and durability (result in words)” value was “excellent noxious-insect repelling effect and durability”.

Take `CCCCCCCCC1(CO)CCCC1O` (stereo not shown) [2-hydroxymethyl-2-octyl-cyclopentanol]: the “noxious-insect repelling effect and durability (result in words)” value was “excellent noxious-insect repelling effect and durability”.

Consider `CC(O)C1CCCCCC1O` (stereo not shown) [2-(1-hydroxyethyl)-cycloheptanol], for which the “noxious-insect repelling effect and durability (result in words)” value is “excellent noxious-insect repelling effect and durability”.

As to `CC(O)C1C(=O)CCC(C)C1C` (stereo not shown) [2-(1-hydroxyethyl)-3,4-dimethyl-cyclohexanone], the “noxious-insect repelling effect and durability (result in words)” value is “excellent noxious-insect repelling effect and durability”.

As to `CCC1CC(O)C(CO)C1` (stereo not shown) [2-hydroxymethyl-4-ethyl-cyclopentanol], the “noxious-insect repelling effect and durability (result in words)” value was “excellent noxious-insect repelling effect and durability”.

As for `CC1CCC(C(C)(C)O)C1=O` (stereo not shown) [2-(1-hydroxyisopropyl)-5-methyl-cyclopentanone], the “noxious-insect repelling effect and durability (result in words)” value was “excellent noxious-insect repelling effect and durability”.

Turning to `CC(C)(C)C1CCC(O)C(CO)C1` (stereo not shown) [2-hydroxymethyl-4-(t-butyl)-cyclohexanol], the “noxious-insect repelling effect and durability (result in words)” value was “excellent noxious-insect repelling effect and durability”.

With `CC1CCC(=O)C(C(C)O)C1` (stereo not shown) [2-(1-hydroxyethyl)-4-methyl-cyclohexanone], the “noxious-insect repelling effect and durability (result in words)” value was “excellent noxious-insect repelling effect and durability”.

For the compound `CC(C)C1(CO)CCCC1O` (stereo not shown) [2-hydroxymethyl-2-isopropyl-cyclopentanol], the “noxious-insect repelling effect and durability (result in words)” value was “excellent noxious-insect repelling effect and durability”.

As to `CCCCCCCCC1(CO)CCCCC1O` (stereo not shown) [2-hydroxymethyl-2-octyl-cyclohexanol], the “noxious-insect repelling effect and durability (result in words)” value was “excellent noxious-insect repelling effect and durability”.

Regarding `CCC1CC(=O)C(CO)C1` (stereo not shown) [2-hydroxymethyl-4-ethyl-cyclopentanone], the “noxious-insect repelling effect and durability (result in words)” value is “excellent noxious-insect repelling effect and durability”.

As to `CC(O)C1C(=O)C2(C)CCC1C2(C)C` (stereo not shown) [3-(1-hydroxyethyl)-camphor], the “noxious-insect repelling effect and durability (result in words)” value is “excellent noxious-insect repelling effect and durability”.

With `CCC1(CO)CCCC1O` (stereo not shown) [2-hydroxymethyl-2-ethyl-cyclopentanol], the “noxious-insect repelling effect and durability (result in words)” value is “excellent noxious-insect repelling effect and durability”.

Regarding `CC(O)C1CCCCCCCCC1O` (stereo not shown) [2-(1-hydroxyethyl)-cyclodecanol], the “noxious-insect repelling effect and durability (result in words)” value is “excellent noxious-insect repelling effect and durability”.

Regarding `CC(O)C1CCCCCCC1=O` (stereo not shown) [2-(1-hydroxyethyl)-cyclooctanone], the “noxious-insect repelling effect and durability (result in words)” value was “excellent noxious-insect repelling effect and durability”.

`CCCC(O)C1C(O)CCC1CC` (stereo not shown) [2-(1-hydroxybutyl)-3-ethyl-cyclopentanol]: the “noxious-insect repelling effect and durability (result in words)” value is “excellent noxious-insect repelling effect and durability”.

On to `CCCCCCCCCCCC1(CO)CCCCC1O` (stereo not shown) [2-hydroxymethyl-2-undecyl-cyclohexanol], for which the “noxious-insect repelling effect and durability (result in words)” value was “excellent noxious-insect repelling effect and durability”.

As for `CC(O)C1CCCCCC1=O` (stereo not shown) [2-(1-hydroxyethyl)-cycloheptanone], the “noxious-insect repelling effect and durability (result in words)” value is “excellent noxious-insect repelling effect and durability”.

`CC1CCC(O)C(C(C)O)C1` (stereo not shown) [2-(1-hydroxyethyl)-4-methyl-cyclohexanol]: the “noxious-insect repelling effect and durability (result in words)” value is “excellent noxious-insect repelling effect and durability”.

Turning to `CC(C)C1(CO)CCCCC1O` (stereo not shown) [2-hydroxymethyl-2-isopropyl-cyclohexanol], the “noxious-insect repelling effect and durability (result in words)” value was “excellent noxious-insect repelling effect and durability”.

For `CC(C)C(O)C1C2CCC(C)(C1O)C2(C)C` (stereo not shown) [3-(1-hydroxy-2-methylpropyl)-borneol], the “noxious-insect repelling effect and durability (result in words)” value was “excellent noxious-insect repelling effect and durability”.

In the case of p-menthane-2-ethyl-3,8-diol, the “noxious-insect repelling effect and durability (result in words)” value was “excellent noxious-insect repelling effect and durability”.

Take `CC(O)C1C(O)CCC(C)C1C` (stereo not shown) [2-(1-hydroxyethyl)-3,4-dimethyl-cyclohexanol]: the “noxious-insect repelling effect and durability (result in words)” value was “excellent noxious-insect repelling effect and durability”.

Take `CCCC(O)C1C2CCC(C)(C1O)C2(C)C` (stereo not shown) [3-(1-hydroxybutyl)-borneol]: the “noxious-insect repelling effect and durability (result in words)” value was “excellent noxious-insect repelling effect and durability”.

Take `CCC(O)C1CC(C)CCC1O` (stereo not shown) [2-(1-hydroxypropyl)-4-methyl-cyclohexanol]: the “noxious-insect repelling effect and durability (result in words)” value is “excellent noxious-insect repelling effect and durability”.

On to p-menthane-2-hexyl-3,8-diol, for which the “noxious-insect repelling effect and durability (result in words)” value was “excellent noxious-insect repelling effect and durability”.

With `CC(C)(C)C1CCC(=O)C(CO)C1` (stereo not shown) [2-hydroxymethyl-4-(t-butyl)-cyclohexanone], the “noxious-insect repelling effect and durability (result in words)” value was “excellent noxious-insect repelling effect and durability”.

Turning to `CC1CCC(C(C)(C)O)C(O)C1C` (stereo not shown) [MMD, p-menthane-2-methyl-3,8-diol], the “noxious-insect repelling effect and durability (result in words)” value is “excellent noxious-insect repelling effect and durability”.

Turning to `CCC(O)C1C(=O)C2(C)CCC1C2(C)C` (stereo not shown) [3-(1-hydroxypropyl)-camphor], the “noxious-insect repelling effect and durability (result in words)” value is “excellent noxious-insect repelling effect and durability”.

For the compound `CC(C)C1CCC(C)C(CO)C1O` (stereo not shown) [HMMO, 2-hydroxymethyl-menthol], the “noxious-insect repelling effect and durability (result in words)” value is “excellent noxious-insect repelling effect and durability”.

In the case of `CCCCCC(O)C1C(=O)C2(C)CCC1C2(C)C` (stereo not shown) [3-(1-hydroxyhexyl)-camphor, reference compound], the “noxious-insect repelling effect and durability (result in words)” value is reported as “does not exhibit the repelling effect”.

`CCC1(CO)CCCCC1O` (stereo not shown) [2-hydroxymethyl-2-ethyl-cyclohexanol]: the “noxious-insect repelling effect and durability (result in words)” value was “excellent noxious-insect repelling effect and durability”.

For `CC1CCC(=O)C(CO)C1C` (stereo not shown) [2-hydroxymethyl-3,4-dimethyl-cyclohexanone], the “noxious-insect repelling effect and durability (result in words)” value is “excellent noxious-insect repelling effect and durability”.

Regarding `CC1CC(C(C)C)CC(CO)C1=O` (stereo not shown) [2-hydroxymethyl-4-isopropyl-6-methyl-cyclohexanone], the “noxious-insect repelling effect and durability (result in words)” value is “excellent noxious-insect repelling effect and durability”.

On to `CC12CCC(C(CO)C1=O)C2(C)C` (stereo not shown) [3-(1-hydroxymethyl)-camphor], for which the “noxious-insect repelling effect and durability (result in words)” value was “excellent noxious-insect repelling effect and durability”.

With `CC(C)C1CCC(C)C(CO)C1=O` (stereo not shown) [HMMT, 2-hydroxymethyl-menthone], the “noxious-insect repelling effect and durability (result in words)” value is “excellent noxious-insect repelling effect and durability”.

As to `CC1CCC(=O)C(CO)C1` (stereo not shown) [2-hydroxymethyl-4-methyl-cyclohexanone], the “noxious-insect repelling effect and durability (result in words)” value was “excellent noxious-insect repelling effect and durability”.

Take `O=C1CCCCCCCCCCC1CO` (stereo not shown) [2-hydroxymethyl-cyclododecanone]: the “noxious-insect repelling effect and durability (result in words)” value is “excellent noxious-insect repelling effect and durability”.

Take `CC(O)C1CCCCCCCCCCC1=O` (stereo not shown) [2-(1-hydroxyethyl)-cyclododecanone]: the “noxious-insect repelling effect and durability (result in words)” value is “excellent noxious-insect repelling effect and durability”.

Turning to `CCC(O)C1C2CCC(C)(C1O)C2(C)C` (stereo not shown) [3-(1-hydroxypropyl)-borneol], the “noxious-insect repelling effect and durability (result in words)” value is “excellent noxious-insect repelling effect and durability”.

Values taken from patent publication US6372804B1, “Noxious-insect repellent” (Kanebo, Ltd., priority 1991, dated 2002).
